Reference: US9562033B2, “Inhibitors of viral replication, their process of preparation and their therapeutical uses” (LABORATOIRE BIODIM, priority 2012, dated 2017)
pEC50: −log10 of the molar value.

Test system: NL4-3 strain of HIV-1
Assay: HIV-1 replication inhibition: cyto-protection of MT4 cells infected with NL4-3 virus (CellTiter-Glo viability assay)
Type: cell-based
Conditions: Human immunodeficiency virus 1, NL43, 120 h, concentration leading to 50% of cyto-protection, 5 days incubation
In short: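 MT4 cells were infected with NL4-3 HIV-1 for 2 hours at 37° (moi 0.0001-0.00001), washed, then incubated 5 days at 37° with serially diluted compounds in RPMI at 0.5% DMSO final. Protection of cell viability was read as CellTiter-Glo luminescence.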

Cc1csnc1-c1sc(C)c(C(OC(C)(C)C)C(=O)O)c1C1=CCC(C)(C)CC1 (stereo not shown) [Example 89, 2-(tert-butoxy)-2-{2-methyl-4-[4,4-dimethylcyclohex-1-en-1-yl]-5-(4-methylisothiazol-3-yl)thiophen-3-yl}acetic acid]
pEC50: 6.07
